Several values for one entry are separate records, joined by “and”; a condition that tells them apart may be missing. Identical values can stand only once.
Key:
Test in all cases: PDSP GPCR panel primary binding assays at 10 μM
Details in all cases: primary assay
[1] = molecular target: T1, cloned human or rodent CNS receptors, channels, and transporters (PDSP panel) (Homo sapiens, UniProt P21917)
T1 construct: expressed in transfected cells
T1 sequence (P21917 1-419): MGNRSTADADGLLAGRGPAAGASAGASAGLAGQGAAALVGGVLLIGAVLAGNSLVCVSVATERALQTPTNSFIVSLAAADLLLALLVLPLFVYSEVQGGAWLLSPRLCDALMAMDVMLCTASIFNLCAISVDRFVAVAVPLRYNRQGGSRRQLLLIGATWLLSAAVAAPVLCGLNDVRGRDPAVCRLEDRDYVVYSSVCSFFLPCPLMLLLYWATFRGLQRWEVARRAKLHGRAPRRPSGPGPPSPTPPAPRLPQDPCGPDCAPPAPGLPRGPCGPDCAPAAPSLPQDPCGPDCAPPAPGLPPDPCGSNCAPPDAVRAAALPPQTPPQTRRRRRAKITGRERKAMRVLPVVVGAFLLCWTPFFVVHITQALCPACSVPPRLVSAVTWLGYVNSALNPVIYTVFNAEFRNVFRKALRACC
Method in brief: (§1)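 PDSP panel of 46–47 cloned human or rodent CNS receptors, channels and transporters; radioligand displacement by compound at 10 μM, in quadruplicate. Where average displacement exceeded 50%, secondary binding followed as 11-point dose-response in triplicate (none for H3, PBR or GABAA).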

[2] = molecular target: T2, cloned human or rodent CNS receptors, channels, and transporters (PDSP panel) (Homo sapiens, UniProt P46098)
T2 construct: expressed in transfected cells
T2 sequence (P46098 24-478): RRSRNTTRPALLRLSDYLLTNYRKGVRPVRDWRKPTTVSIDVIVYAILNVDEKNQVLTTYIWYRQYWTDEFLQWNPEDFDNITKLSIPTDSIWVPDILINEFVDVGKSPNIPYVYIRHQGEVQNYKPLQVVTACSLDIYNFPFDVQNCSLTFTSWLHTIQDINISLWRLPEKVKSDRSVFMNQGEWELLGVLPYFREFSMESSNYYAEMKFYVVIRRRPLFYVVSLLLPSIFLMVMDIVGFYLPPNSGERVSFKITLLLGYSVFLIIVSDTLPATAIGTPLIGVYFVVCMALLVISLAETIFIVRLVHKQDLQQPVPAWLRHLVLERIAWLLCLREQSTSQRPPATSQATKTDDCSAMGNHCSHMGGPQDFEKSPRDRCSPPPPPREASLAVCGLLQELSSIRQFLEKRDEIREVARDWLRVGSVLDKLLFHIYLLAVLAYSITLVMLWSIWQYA
Method in brief: as §1

[3] = molecular target: T3, cloned human or rodent CNS receptors, channels, and transporters (PDSP panel) (Homo sapiens, UniProt P23975)
T3 construct: expressed in transfected cells
Method in brief: as §1

[4] = molecular target: T4, cloned human or rodent CNS receptors, channels, and transporters (PDSP panel) (Homo sapiens, UniProt P28223)
T4 construct: expressed in transfected cells
Method in brief: as §1

[5] = molecular target: T5, cloned human or rodent CNS receptors, channels, and transporters (PDSP panel) (Homo sapiens, UniProt P21728)
T5 construct: expressed in transfected cells
Method in brief: as §1

[6] = molecular target: T6, cloned human or rodent CNS receptors, channels, and transporters (PDSP panel) (Homo sapiens, UniProt P50406)
T6 construct: expressed in transfected cells
Method in brief: as §1

[7] = molecular target: T7, cloned human or rodent CNS receptors, channels, and transporters (PDSP panel) (Homo sapiens, UniProt P08172)
T7 construct: expressed in transfected cells
T7 sequence (P08172 1-466): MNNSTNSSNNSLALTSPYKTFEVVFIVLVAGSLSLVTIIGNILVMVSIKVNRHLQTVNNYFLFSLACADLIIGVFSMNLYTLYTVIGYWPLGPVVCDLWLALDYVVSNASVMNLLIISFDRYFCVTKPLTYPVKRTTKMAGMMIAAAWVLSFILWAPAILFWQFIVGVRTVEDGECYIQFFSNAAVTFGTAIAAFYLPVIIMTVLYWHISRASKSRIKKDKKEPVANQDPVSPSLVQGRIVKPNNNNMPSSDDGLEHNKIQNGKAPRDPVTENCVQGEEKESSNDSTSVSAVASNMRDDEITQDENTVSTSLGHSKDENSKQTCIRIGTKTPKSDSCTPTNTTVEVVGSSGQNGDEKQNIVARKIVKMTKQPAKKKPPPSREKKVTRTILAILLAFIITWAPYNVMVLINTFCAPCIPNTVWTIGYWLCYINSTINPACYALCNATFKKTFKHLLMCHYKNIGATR
Method in brief: as §1

T6 sequence (P50406 whole entry): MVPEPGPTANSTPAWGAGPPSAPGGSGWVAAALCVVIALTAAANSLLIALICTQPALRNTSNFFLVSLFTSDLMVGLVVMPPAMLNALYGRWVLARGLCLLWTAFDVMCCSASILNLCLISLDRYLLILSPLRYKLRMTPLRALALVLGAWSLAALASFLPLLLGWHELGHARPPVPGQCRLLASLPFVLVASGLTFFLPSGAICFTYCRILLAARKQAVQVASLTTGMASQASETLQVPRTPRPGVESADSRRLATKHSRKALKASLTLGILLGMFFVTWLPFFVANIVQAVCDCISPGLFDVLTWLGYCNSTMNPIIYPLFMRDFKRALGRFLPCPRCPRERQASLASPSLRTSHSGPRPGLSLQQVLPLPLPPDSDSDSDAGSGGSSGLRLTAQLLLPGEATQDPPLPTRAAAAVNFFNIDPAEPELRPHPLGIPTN
T4 sequence (P28223 whole entry): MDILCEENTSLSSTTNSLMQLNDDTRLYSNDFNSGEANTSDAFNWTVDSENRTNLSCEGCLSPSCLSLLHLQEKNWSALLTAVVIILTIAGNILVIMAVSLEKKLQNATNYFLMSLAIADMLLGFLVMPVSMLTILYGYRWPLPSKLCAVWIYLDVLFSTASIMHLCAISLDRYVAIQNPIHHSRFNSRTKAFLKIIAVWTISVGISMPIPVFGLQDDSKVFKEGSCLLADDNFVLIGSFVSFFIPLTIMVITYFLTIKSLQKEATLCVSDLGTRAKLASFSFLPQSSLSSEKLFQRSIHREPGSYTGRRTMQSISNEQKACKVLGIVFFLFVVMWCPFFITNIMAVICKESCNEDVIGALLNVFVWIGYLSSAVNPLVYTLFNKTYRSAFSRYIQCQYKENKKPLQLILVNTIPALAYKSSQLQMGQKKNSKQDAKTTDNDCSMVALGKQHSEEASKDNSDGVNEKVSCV
T3 sequence (P23975 whole entry): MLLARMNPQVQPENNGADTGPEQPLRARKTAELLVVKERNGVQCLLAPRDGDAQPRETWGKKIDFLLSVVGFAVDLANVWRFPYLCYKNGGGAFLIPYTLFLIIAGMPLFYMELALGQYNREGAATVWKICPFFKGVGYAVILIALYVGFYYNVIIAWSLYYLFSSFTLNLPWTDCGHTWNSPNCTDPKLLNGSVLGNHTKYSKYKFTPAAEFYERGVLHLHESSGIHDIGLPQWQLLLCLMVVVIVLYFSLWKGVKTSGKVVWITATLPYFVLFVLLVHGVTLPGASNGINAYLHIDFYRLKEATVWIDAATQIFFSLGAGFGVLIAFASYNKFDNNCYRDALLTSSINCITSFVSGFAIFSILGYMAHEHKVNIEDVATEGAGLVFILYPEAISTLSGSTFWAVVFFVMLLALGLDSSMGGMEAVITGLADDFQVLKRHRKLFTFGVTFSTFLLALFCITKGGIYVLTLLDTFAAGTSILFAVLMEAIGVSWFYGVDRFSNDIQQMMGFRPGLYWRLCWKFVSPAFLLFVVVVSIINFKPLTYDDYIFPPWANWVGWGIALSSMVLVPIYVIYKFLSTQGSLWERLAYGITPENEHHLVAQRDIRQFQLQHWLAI
T5 sequence (P21728 whole entry): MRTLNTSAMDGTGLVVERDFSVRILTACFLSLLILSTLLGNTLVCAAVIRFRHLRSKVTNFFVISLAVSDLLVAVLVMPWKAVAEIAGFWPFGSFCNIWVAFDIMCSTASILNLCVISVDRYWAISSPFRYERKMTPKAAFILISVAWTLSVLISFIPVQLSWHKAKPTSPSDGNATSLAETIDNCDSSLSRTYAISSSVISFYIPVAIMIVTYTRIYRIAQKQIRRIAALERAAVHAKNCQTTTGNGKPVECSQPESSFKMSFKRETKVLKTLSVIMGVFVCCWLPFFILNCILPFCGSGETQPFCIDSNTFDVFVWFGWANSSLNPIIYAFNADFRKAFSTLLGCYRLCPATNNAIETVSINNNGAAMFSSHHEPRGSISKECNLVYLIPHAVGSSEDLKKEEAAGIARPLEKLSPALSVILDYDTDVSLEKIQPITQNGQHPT

O=C(NC1CC1)C(=O)C(Cc1ccccc1)NC(=O)[C@H]1CCC(=O)N1Cc1ccccc1 (stereo partly shown) [UNC10302676A, ABT-957 (Alicapistat)]
Mean % ([1]; D4, mean inhibition): 0.58%
Inhibition 1 ([1]; D4, replicate 1): 5.07%
Inhibition 2 ([1]; D4, replicate 2): -11.66%
Inhibition 3 ([1]; D4, replicate 3): 8.7%
Inhibition 4 ([1]; D4, replicate 4): 0.19%
Mean % ([2]; 5-HT3, mean inhibition): -3.28%
Inhibition 1 ([2]; 5-HT3, replicate 1): -2.95%
Inhibition 2 ([2]; 5-HT3, replicate 2): -3.65%
Inhibition 3 ([2]; 5-HT3, replicate 3): -8.86%
Inhibition 4 ([2]; 5-HT3, replicate 4): 2.33%
Inhibition 1 ([3]; NET, replicate 1): 22.45% and -0.84%
Inhibition 2 ([3]; NET, replicate 2): -3.8% and -22.08%
Inhibition 3 ([3]; NET, replicate 3): -17.85% and -14.66%
Inhibition 4 ([3]; NET, replicate 4): -11.29% and -22.96%
Mean % ([4]; 5-HT2A, mean inhibition): 1.79%
Inhibition 1 ([4]; 5-HT2A, replicate 1): 6.22%
Inhibition 2 ([4]; 5-HT2A, replicate 2): 7.05%
Inhibition 3 ([4]; 5-HT2A, replicate 3): 5.57%
Inhibition 4 ([4]; 5-HT2A, replicate 4): -11.7%
Mean % ([5]; D1, mean inhibition): 0%
Inhibition 1 ([5]; D1, replicate 1): 13.52%
Inhibition 2 ([5]; D1, replicate 2): -11.9%
Inhibition 3 ([5]; D1, replicate 3): -21.45%
Inhibition 4 ([5]; D1, replicate 4): 19.83%
Mean % ([6]; 5-HT6, mean inhibition): -7.55%
Inhibition 1 ([6]; 5-HT6, replicate 1): 7.34%
Inhibition 2 ([6]; 5-HT6, replicate 2): -8.22%
Inhibition 3 ([6]; 5-HT6, replicate 3): -20.76%
Inhibition 4 ([6]; 5-HT6, replicate 4): -8.54%
Mean % ([7]; M2, mean inhibition): 2.92%
Inhibition 1 ([7]; M2, replicate 1): 7.16%
Inhibition 2 ([7]; M2, replicate 2): -5.38%
Inhibition 3 ([7]; M2, replicate 3): 7.65%
Inhibition 4 ([7]; M2, replicate 4): 2.24%

CC(=O)N1CCC(NC(=O)NC23CC4CC(CC(C4)C2)C3)CC1 [UNC10302683A, AR9281]
Mean % ([1]; D4, mean inhibition): -0.6%
Inhibition 1 ([1]; D4, replicate 1): 1.15%
Inhibition 2 ([1]; D4, replicate 2): -3.44%
Inhibition 3 ([1]; D4, replicate 3): -3.44%
Inhibition 4 ([1]; D4, replicate 4): 3.35%
Mean % ([2]; 5-HT3, mean inhibition): 13.87%
Inhibition 1 ([2]; 5-HT3, replicate 1): 9.48%
Inhibition 2 ([2]; 5-HT3, replicate 2): 13.6%
Inhibition 3 ([2]; 5-HT3, replicate 3): -1.71%
Inhibition 4 ([2]; 5-HT3, replicate 4): 34.11%
Mean % ([3]; NET, mean inhibition): 6.47% and 1.67%
Inhibition 1 ([3]; NET, replicate 1): -14.58% and 25.31%
Inhibition 2 ([3]; NET, replicate 2): -2.12% and 13.5%
Inhibition 3 ([3]; NET, replicate 3): 2.28% and -19.09%
Inhibition 4 ([3]; NET, replicate 4): 40.3% and -13.05%
Mean % ([4]; 5-HT2A, mean inhibition): -3.07%
Inhibition 1 ([4]; 5-HT2A, replicate 1): -2.98%
Inhibition 2 ([4]; 5-HT2A, replicate 2): 1.29%
Inhibition 3 ([4]; 5-HT2A, replicate 3): -10.71%
Inhibition 4 ([4]; 5-HT2A, replicate 4): 0.14%
Mean % ([5]; D1, mean inhibition): -14.57%
Inhibition 1 ([5]; D1, replicate 1): -3.64%
Inhibition 2 ([5]; D1, replicate 2): -20.64%
Inhibition 3 ([5]; D1, replicate 3): -32.3%
Inhibition 4 ([5]; D1, replicate 4): -1.7%
Mean % ([6]; 5-HT6, mean inhibition): 9.33%
Inhibition 1 ([6]; 5-HT6, replicate 1): 32.27%
Inhibition 2 ([6]; 5-HT6, replicate 2): 17.51%
Inhibition 3 ([6]; 5-HT6, replicate 3): -5.68%
Inhibition 4 ([6]; 5-HT6, replicate 4): -6.79%
Mean % ([7]; M2, mean inhibition): -10.23%
Inhibition 1 ([7]; M2, replicate 1): -16.19%
Inhibition 2 ([7]; M2, replicate 2): -6.36%
Inhibition 3 ([7]; M2, replicate 3): -14.96%
Inhibition 4 ([7]; M2, replicate 4): -3.41%

CCCCNc1ncc2c(-c3ccc(CN4CCN(C)CC4)cc3)cn([C@H]3CC[C@H](O)CC3)c2n1 [UNC2025C, UNC2025]
Inhibition 1 ([1]; Receptor D4, 10 μM): 1.91%
Inhibition 2 ([1]; Receptor D4, 10 μM): -16.35%
Inhibition 3 ([1]; Receptor D4, 10 μM): 0.67%
Inhibition 4 ([1]; Receptor D4, 10 μM): 12.24%
Mean % ([1]; Receptor D4, 10 μM, mean of Inhibition 1-4): -0.38%
Inhibition 1 ([2]; Receptor 5-HT3, 10 μM): 11.35%
Inhibition 2 ([2]; Receptor 5-HT3, 10 μM): 35.98%
Inhibition 3 ([2]; Receptor 5-HT3, 10 μM): 21.68%
Inhibition 4 ([2]; Receptor 5-HT3, 10 μM): 26.58%
Mean % ([2]; Receptor 5-HT3, 10 μM, mean of Inhibition 1-4): 23.9%
Inhibition 1 ([3]; Receptor NET, 10 μM): 67.05% and 40.06%
Inhibition 2 ([3]; Receptor NET, 10 μM): 52.92% and 42.04%
Inhibition 3 ([3]; Receptor NET, 10 μM): 47% and 40.28%
Inhibition 4 ([3]; Receptor NET, 10 μM): 46.05% and 54.77%
Mean % ([3]; Receptor NET, 10 μM, mean of Inhibition 1-4): 53.26% and 44.29%
Inhibition 1 ([4]; Receptor 5-HT2A, 10 μM): 90.4%
Inhibition 2 ([4]; Receptor 5-HT2A, 10 μM): 85.14%
Inhibition 3 ([4]; Receptor 5-HT2A, 10 μM): 80.37%
Inhibition 4 ([4]; Receptor 5-HT2A, 10 μM): 89.25%
Mean % ([4]; Receptor 5-HT2A, 10 μM, mean of Inhibition 1-4): 86.29%
Inhibition 1 ([5]; Receptor D1, 10 μM): 18.86%
Inhibition 2 ([5]; Receptor D1, 10 μM): -8.82%
Inhibition 3 ([5]; Receptor D1, 10 μM): 17.73%
Inhibition 4 ([5]; Receptor D1, 10 μM): 11.41%
Mean % ([5]; Receptor D1, 10 μM, mean of Inhibition 1-4): 9.8%
Inhibition 1 ([6]; Receptor 5-HT6, 10 μM): -20.29%
Inhibition 2 ([6]; Receptor 5-HT6, 10 μM): 0.2%
Inhibition 3 ([6]; Receptor 5-HT6, 10 μM): -8.54%
Inhibition 4 ([6]; Receptor 5-HT6, 10 μM): -2.02%
Mean % ([6]; Receptor 5-HT6, 10 μM, mean of Inhibition 1-4): -7.66%
Inhibition 1 ([7]; Receptor M2, 10 μM): 32.43%
Inhibition 2 ([7]; Receptor M2, 10 μM): 20.76%
Inhibition 3 ([7]; Receptor M2, 10 μM): 14.93%
Inhibition 4 ([7]; Receptor M2, 10 μM): 24.5%
Mean % ([7]; Receptor M2, 10 μM, mean of Inhibition 1-4): 23.16%

MDL 28170 [UNC10302675A]
Mean % ([1]; D4, mean inhibition): 0.31%
Inhibition 1 ([1]; D4, replicate 1): 10.14%
Inhibition 2 ([1]; D4, replicate 2): -3.06%
Inhibition 3 ([1]; D4, replicate 3): -7.08%
Inhibition 4 ([1]; D4, replicate 4): 1.24%
Mean % ([2]; 5-HT3, mean inhibition): -2.62%
Inhibition 1 ([2]; 5-HT3, replicate 1): -0.93%
Inhibition 2 ([2]; 5-HT3, replicate 2): 2.95%
Inhibition 3 ([2]; 5-HT3, replicate 3): -29.22%
Inhibition 4 ([2]; 5-HT3, replicate 4): 16.71%
Mean % ([3]; NET, mean inhibition): 1.5% and 5.58%
Inhibition 1 ([3]; NET, replicate 1): 1.64% and 23.85%
Inhibition 2 ([3]; NET, replicate 2): -18.73% and 10.38%
Inhibition 3 ([3]; NET, replicate 3): -4.59% and 3.46%
Inhibition 4 ([3]; NET, replicate 4): 27.68% and -15.39%
Mean % ([4]; 5-HT2A, mean inhibition): -2.25%
Inhibition 1 ([4]; 5-HT2A, replicate 1): 10.17%
Inhibition 2 ([4]; 5-HT2A, replicate 2): -7.92%
Inhibition 3 ([4]; 5-HT2A, replicate 3): -7.75%
Inhibition 4 ([4]; 5-HT2A, replicate 4): -3.48%
Mean % ([5]; D1, mean inhibition): -0.08%
Inhibition 1 ([5]; D1, replicate 1): 13.68%
Inhibition 2 ([5]; D1, replicate 2): 11.74%
Inhibition 3 ([5]; D1, replicate 3): -15.62%
Inhibition 4 ([5]; D1, replicate 4): -10.12%
Mean % ([6]; 5-HT6, mean inhibition): -4.53%
Inhibition 1 ([6]; 5-HT6, replicate 1): 18.94%
Inhibition 2 ([6]; 5-HT6, replicate 2): -17.59%
Inhibition 3 ([6]; 5-HT6, replicate 3): -16%
Inhibition 4 ([6]; 5-HT6, replicate 4): -3.45%
Mean % ([7]; M2, mean inhibition): 1.32%
Inhibition 1 ([7]; M2, replicate 1): -8.82%
Inhibition 2 ([7]; M2, replicate 2): -11.77%
Inhibition 3 ([7]; M2, replicate 3): 0.03%
Inhibition 4 ([7]; M2, replicate 4): 25.84%
